Data set [1] is described as follows: Experimental distribution coefficient (eLogD) by LC retention time. It counts as physicochemical. Conditions: for chromatographic logD: C18 column (LC retention time); for eLogD: Table S5. The method, then:
For the eLogD assays ([Waring, 2010]), each compound (5 μl) from a 5 mM stock solution was diluted in 245 μl of a solution containing buffers A (5% MeOH, 10 mM ammonium acetate, pH 7.4) and B (100% MeOH, pH 7.4) (50:50). Nine control compounds with known eLogD and column retention times (acyclovir, atenolol, antipyrine, fluconazole, metoprolol, carbamazepine, ketoconazole, tolnaftate, and amiodarone; eLogD values ranging from −1.86 to 6.1) were subjected to LC-MS/MS in triplicate before and after the analysis of the test compounds. Retention times were recorded for each control and test compound in a C18 column. The retention time of each control compound was plotted against the respective eLogD values described in the literature ([Lombardo et al., 2002]; [Lombardo et al., 2004]; [Alelyunas et al., 2010]). The resulting linear equation (y = mx + b) was used to calculate the eLogD values of the test compounds, in which x is the retention time in minutes and y is the eLogD value.

The nature of data set [2]: In vitro metabolic stability in mouse liver microsomes. Format: in vitro ADME. As to conditions: mouse, liver microsomes. The procedure, abridged: (§1)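 Compounds incubated at 37°C with mouse or human liver microsomes (0.25 mg/ml) in potassium phosphate buffer with NADPH; samples quenched in ACN/MeOH at 0, 5, 10, 15, 20 and 30 min. Parent remaining by LC-MS/MS relative to 0 min; T½ = ln(2)/k, CLint = k*1000/0.25 (μL/min/mg).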
Background: Liver microsomes are a subcellular fraction often used to study metabolism.

Data set [3] can be described thus: In vitro metabolic stability in human liver microsomes. It counts as in vitro ADME. As to conditions: human, liver microsomes. The essentials: as §1
Data set [4] in a line: Parallel artificial membrane permeability assay (PAMPA). Format: in vitro ADME. Details: PAMPA: unit: 1e-6 cm/s. As to conditions: for Papp at 5 h, 1 µM: PAMPA; for PAMPA: Table S5, unit not given.
[5] abbreviates: Table 5, CLint/fu, read-out: CLint_u (L/h/kg) mouse (converted).
The mark [6] stands for this setting: Table 5, read-out: CLint (L/h/kg) mouse (converted).
[7] abbreviates: Table S5, CLint/fu, read-out: CLint_u (L/h/kg) Mouse (converted).
Setting [8] is: Table S5, read-out: CLint (L/h/kg) Mouse (converted).
[9] abbreviates: Table 5, CLint/fu, read-out: CLint_u (L/h/kg) human (converted).
Setting [10] is: Table 5, read-out: CLint (L/h/kg) human (converted).
The mark [11] stands for this setting: Table S5, CLint/fu, read-out: CLint_u (L/h/kg) Human (converted).
Setting [12] is: Table S5, read-out: CLint (L/h/kg) Human (converted).
Where [13] appears, read: Table 3, donor pH 6.5, acceptor pH 7.4, 5 h.

`O=C(Cn1ccnc1[N+](=O)[O-])NCc1ccccc1` [BZ, benznidazole, reference compound]: the chromatographic logD in data set [1] (pH 7.4, Table 3, pH 7.4) stood at 0.84; in data set [1] (pH 7.4, Table 5), 0.8. The compound also yielded an eLogD in data set [1] of 0.84. Moreover, the CLint scaled at 5 µM in data set [2] (setting [5]) is 4.4 L/h/kg; in data set [2] (setting [6]), 4.4 L/h/kg; in data set [2] (setting [7]), 4.43 L/h/kg; in data set [2] (setting [8]) it was 4.43 L/h/kg; in data set [3] (setting [9]), 1.5 L/h/kg; in data set [3] (setting [10]), 1.5 L/h/kg. Further, the CLint scaled at 5 µM in data set [3] (setting [11]) and in data set [3] (setting [12]) was 1.5 L/h/kg throughout. For the same compound, the Papp at 5 h, 1 µM in data set [4] (setting [13]) amounted to 3.17 ×10⁻⁶ cm/s; in data set [4] (Table 5), 3.2 ×10⁻⁶ cm/s. The compound further returned a PAMPA in data set [4] of 3.17.

With `COc1ccc2cc(OCC(=O)NCCc3nc4ccccc4[nH]3)ccc2c1` [Compound 12], the chromatographic logD in data set [1] (pH 7.4, Table 3, pH 7.4) turned out to be 3.89. The same compound displayed an eLogD in data set [1] of 3.89. Further, the CLint scaled at 5 µM in data set [2] (setting [7]) is 1610 L/h/kg; in data set [2] (setting [8]), 177 L/h/kg; in data set [3] (setting [11]) it was 233 L/h/kg; in data set [3] (setting [12]) it was 25.6 L/h/kg. In data set [4] (setting [13]), this compound yielded a Papp at 5 h, 1 µM of 0.34 ×10⁻⁶ cm/s. The PAMPA in data set [4] was determined as 0.34.

In the case of `O=C(COc1ccccc1Br)NCCc1nc2ccccc2[nH]1` [Compound 18], the chromatographic logD in data set [1] (pH 7.4, Table 5) came out at 3.9. Also, the CLint scaled at 5 µM in data set [2] (setting [5]) was 334 L/h/kg; in data set [2] (setting [6]) it was 191 L/h/kg; in data set [3] (setting [9]), 16 L/h/kg; in data set [3] (setting [10]), 9.2 L/h/kg. The Papp at 5 h, 1 µM in data set [4] (Table 5) worked out at 5.6 ×10⁻⁶ cm/s.

By chromatographic logD is commonly meant lipophilicity estimated from chromatographic retention. The Papp is the rate of passage across a membrane or cell layer, normalised by area and donor concentration.

The record behind these values is paper PMC8767159, “Multiparameter Optimization of Trypanocidal Cruzain Inhibitors With In Vivo Activity and Favorable Pharmacokinetics” (Frontiers in Pharmacology, 2022).
